pEC50: −log10 of the molar value. Counter-ions that a name gives are not always drawn.
System: rats in a cerebral ischemia-reperfusion model
Assay: not given
Details: cited from earlier work

Row | SMILES | cortical damage
1 | CC(C)(C)c1cc(O)ccc1O [tert-butylhydroquinone] | reduced cortical damage

System: NRF2 wild-type but not KO mice
Assay: not given
Details: after administration of tBHQ; cited from earlier work

Row | SMILES | cortical glutathione levels
2 | CC(C)(C)c1cc(O)ccc1O [tert-butylhydroquinone] | increased in NRF2 wild-type but not KO mice

System: rats on a choline-deficient L-amino acid-defined diet
Assay: not given
Details: cited from earlier work

Row | SMILES | progression of histologic abnormalities, especially hepatic fibrosis
3 | O=C(NCc1ccccn1)Nc1nnc(-c2ccco2)o1 [NK-252] | significantly attenuated
4 | Cc1c(-c2cnccn2)ssc1=S [oltipraz] | significantly attenuated

System: NQO1 specific enzyme activity in BEAS-2B cells (marker for NRF2 activation)
Assay: BEAS-2B NQO1 MTT Assay
Assay type: cell-based
Details: Homo sapiens, BEAS-2B, 48 h, NQO1 specific activity induction, 48 hours with compound
Outline: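 Following 48 h compound treatment at 37° C., 5% CO2, cells were lysed and MTT cocktail added. Product formation was followed kinetically at 570 nm for 30 min. Rate (Delta OD/min) against log concentration was fitted with 3 parameters to give pEC50 for induction of NQO1 specific activity.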

Row | SMILES | pEC50
5 | CC[C@@H]1CN(Cc2cc([C@H](OCc3cn(C)nn3)C(C)(C)C(=O)O)ccc2C)Cc2ncccc2O1 [Example 111, (S)-methyl-3-(3-(((R)-2-ethyl-2,3-dihydropyrido[2,3-f][1,4]oxazepin-4(5H)-yl)methyl)-4-methyl-phenyl)-2,2-dimethyl-3-((1-methyl-1H-1,2,3-triazol-4-yl)-methoxy)-propanoic acid] | 6.00 to 7.00
6 | Cc1ccc([C@H](OCc2cn(C)nn2)C(C)(C)C(=O)O)cc1CN1Cc2ncccc2O[C@H](C(C)C)C1 [Example 112, (S)-3-(3-(((R)-2-isopropyl-2,3-dihydropyrido[2,3-f][1,4]oxazepin-4(5H)-yl)methyl)-4-methylphenyl)-2,2-dimethyl-3-((1-methyl-1H-1,2,3-triazol-4-yl)-methoxy)propanoic acid, trifluoroacetate] | 7.00 to 8.00
7 | CC[C@@H]1CN(Cc2cc([C@@H](OCc3cn(CC)nn3)C(C)(C)C(=O)O)ccc2C)Cc2ncccc2O1 [Example 113, (R)-3-((1-Ethyl-1H-1,2,3-triazol-4-yl)methoxy)-3-(3-(((R)-2-ethyl-2,3-dihydropyrido[2,3-f][1,4]oxazepin-4(5H)-yl)methyl)-4-methylphenyl)-2,2-dimethylpropanoic Acid, Trifluoroacetate] | 7.00 to 8.00
8 | CC[C@@H]1CN(Cc2cc([C@H](OCc3cn(CC)nn3)C(C)(C)C(=O)O)ccc2C)Cc2ncccc2O1 [Example 114, (S)-methyl 3-((1-ethyl-1H-1,2,3-triazol-4-yl)-methoxxy)-3-(3-(((R)-2-ethyl-2,3-dihydropyrido[2,3-f][1,4]oxazepin-4(5H)-yl)methyl)-4-methylphenyl)-2,2-dimethyl-propanoic acid, trifluoroacetate] | 6.00 to 7.00
9 | CC[C@H]1Cc2cccnc2CN(Cc2cc([C@@H](OCc3cn(CC)nn3)C(C)(C)C(=O)O)ccc2C)C1 [Example 115, (R)-methyl 3-((1-ethyl-1H-1,2,3-triazol-4-yl)-methoxy)-3-(3-((S)-6-ethyl-6,7-dihydro-5H-pyrido[2,3-c]azepin-8(9H)-yl)methyl)-4-methylphenyl)-2,2-dimethyl-propanoic acid, trifluoroacetate] | 8.00 to 9.00
10 | CC[C@H]1Cc2cccnc2CN(Cc2cc([C@H](OCc3cn(CC)nn3)C(C)(C)C(=O)O)ccc2C)C1 [Example 116, (S)-methyl 3-((1-ethyl-1H-1,2,3-triazol-4-yl)-methoxy)-3-(3-(((S)-6-ethyl-6,7-dihydro-5H-pyrido[2,3-c]azepin-8(9H)-yl)methyl)-4-methylphenyl)-2,2-dimethyl-propanoic acid, trifluoroacetate] | 7.00 to 8.00
11 | CC[C@@H]1CN(Cc2cc([C@@H](OCc3cn(CC)nn3)C(C)(C)C(=O)O)ccc2C)Cc2ccccc2O1 [Example 117, (R)-methyl 3-((1-ethyl-1H-1,2,3-triazol-4-yl)-methoxy)-3-(3-(((R)-2-ethyl-2,3-dihydro-benzo[f][1,4]oxazepin-4(5H)-yl)methyl)-4-methylphenyl)-2,2-dimethyl-propanoic acid, trifluoroacetate] | 7.00 to 8.00
12 | CC[C@@H]1CN(Cc2cc([C@H](OCc3cn(CC)nn3)C(C)(C)C(=O)O)ccc2C)Cc2ccccc2O1 [Example 118] | 5.00 to 6.00
13 | CC[C@H]1Cc2ccccc2S(=O)(=O)N(Cc2cc([C@@H](OCc3cn(C)nn3)C(C)(C)C(=O)O)ccc2C)C1 [Example 119, (R)-3-(3-(((S)-4-Ethyl-1,1-dioxido-4,5-dihydrobenzo[f][1,2]thiazepin-2(3H)-yl)methyl)-4-methylphenyl)-2,2-dimethyl-3-((1-methyl-1H-1,2,3-triazol-4-yl)methoxy)propanoic acid] | > 9.00
14 | CC[C@@H]1CN(Cc2cc([C@@H](OCc3cn(C)nn3)C(C)(C)C(=O)O)ccc2C)S(=O)(=O)c2ccccc2O1 [Example 120, (R)-3-(3-(((R)-4-Ethyl-1,1-dioxido-3,4-dihydro-2H-benzo[b][1,4,5]oxathiazepin-2-yl)methyl)-4-methylphenyl)-2,2-dimethyl-3-((1-methyl-1H-1,2,3-triazol-4-yl)methoxy)propanoic acid] | > 9.00
15 | CC[C@@H]1CN(Cc2cc([C@@H](OCc3cn(C)nn3)C(C)(C)C(=O)O)ccc2C)S(=O)(=O)c2ncccc2O1 [Example 121, (R)-3-(3-(((R)-4-Ethyl-1,1-dioxido-3,4-dihydro-2H-pyrido[3,2-b][1,4,5]oxathiazepin-2-yl)methyl)-4-methylphenyl)-2,2-dimethyl-3-((1-methyl-1H-1,2,3-triazol-4-yl)methoxy)propanoic acid] | 8.00 to 9.00

System: COPD macrophages and alveolar macrophages from cigarette smoke-exposed mice
Assay: not given
Details: cited from earlier work

Row | SMILES | expression of Macrophage Receptor with Collagenous structure (MARCO)
16 | C[S+]([O-])CCCCN=C=S (stereo not shown) [Sulforaphane] | increases the expression of Macrophage Receptor with Collagenous structure (MARCO)

Source: patent US12091409B2, “Ether linked triazoles as NRF2 activators” (ASTEX THERAPEUTICS LIMITED, priority 2016, dated 2024)
